Results as given in US12256735B2, “Insecticidal combinations” (UPL LTD, priority 2018, dated 2025).

Key:
Lucinodes arbonalis = assay: Trial of efficacy on Lucinodes arbonalis in Brinjal; type: in vivo
Method: Trials were conducted to test the efficacy of the combination of Chlorantraniliprole+Bifenthrin+Bifenazate on Lucinodes arbonalis in Brinjal: […]

mites in Brinjal = assay: Trial of efficacy on mites in Brinjal; type: in vivo
Method: Trials were conducted to test the efficacy of the combination of Chlorantraniliprole+Bifenthrin+Bifenazate on mites in Brinjal: […]

Cc1c(COC(=O)[C@@H]2[C@H](/C=C(\Cl)C(F)(F)F)C2(C)C)cccc1-c1ccccc1 (racemic) [Bifenthrin]
% mortality 3 DAA (Lucinodes arbonalis; dose 40 gm. ai/ha): 55% | % mortality 7 DAA (Lucinodes arbonalis; dose 40 gm. ai/ha): 65% | % mortality 10 DAA (Lucinodes arbonalis; dose 40 gm. ai/ha): 53% | % mortality 14 DAA (Lucinodes arbonalis; dose 40 gm. ai/ha): 41% | % mortality 3 DAA (mites in Brinjal; dose 40 gm. ai/ha): 75% | % mortality 7 DAA (mites in Brinjal; dose 40 gm. ai/ha): 80% | % mortality 10 DAA (mites in Brinjal; dose 40 gm. ai/ha): 75% | % mortality 14 DAA (mites in Brinjal; dose 40 gm. ai/ha): 65%

COc1ccc(-c2ccccc2)cc1NNC(=O)OC(C)C [Bifenazate]
% mortality 3 DAA (Lucinodes arbonalis; dose 150 gm. ai/ha): 9.9% | % mortality 7 DAA (Lucinodes arbonalis; dose 150 gm. ai/ha): 12% | % mortality 10 DAA (Lucinodes arbonalis; dose 150 gm. ai/ha): 10.9% | % mortality 14 DAA (Lucinodes arbonalis; dose 150 gm. ai/ha): 7.9% | % mortality 3 DAA (mites in Brinjal; dose 150 gm. ai/ha): 65% | % mortality 7 DAA (mites in Brinjal; dose 150 gm. ai/ha): 95.1% | % mortality 10 DAA (mites in Brinjal; dose 150 gm. ai/ha): 85% | % mortality 14 DAA (mites in Brinjal; dose 150 gm. ai/ha): 75%

CNC(=O)c1cc(Cl)cc(C)c1NC(=O)c1cc(Br)nn1-c1ncccc1Cl [Chlorantraniliprole]
% mortality 3 DAA (Lucinodes arbonalis; dose 30 gm. ai/ha): 80% | % mortality 7 DAA (Lucinodes arbonalis; dose 30 gm. ai/ha): 90.1% | % mortality 10 DAA (Lucinodes arbonalis; dose 30 gm. ai/ha): 89.1% | % mortality 14 DAA (Lucinodes arbonalis; dose 30 gm. ai/ha): 79% | % mortality 3 DAA (mites in Brinjal; dose 30 gm. ai/ha): 9.9% | % mortality 7 DAA (mites in Brinjal; dose 30 gm. ai/ha): 8.9% | % mortality 10 DAA (mites in Brinjal; dose 30 gm. ai/ha): 7.9% | % mortality 14 DAA (mites in Brinjal; dose 30 gm. ai/ha): 10.9%
